Reference: US11485714B2, “Hydroxyethylamine-based piperazine compounds, and methods of producing and using the same for treating disease” (National Institute of Immunology, priority 2020, dated 2022)

Key:
human platelets = assay: Agonist-induced platelet aggregation; type: cell-based; conditions: up to 20 μg/ml
Experimental: Studies were performed to assess the effect of Calxinin on hemostatic parameters using plasmatic and whole blood assays.

primary and human cells = assay: Cell cytotoxicity assays in primary and human cells (summary statements); type: cell-based
Experimental: PBMC were isolated from healthy donors using the Ficoll-Paque™ technique (GE Healthcare Bioscience AB, Uppsala, Sweden) from donor leukopack samples obtained from LUMC blood bank services. […] Robust cells at a concentration of 80,000 cells/ml were plated into 96-well plates and incubated for 24 hours. Cell viability and proliferation was determined by use of both MTT and Cell Titer Glo@ assays for both cell types. MTT assay was conducted by addition of 10 μL MTT solution (5 mg/mL) into each well, incubated for 4 hour at 37° C. followed by addition of 50 μL DMSO to dissolve the formazan precipitate according to the manufacturer's protocol. Aliquots were drawn from each well and color intensity was measured spectrophotometrically in SpectraMax® M5 Multi-Mode Microplate Reader.
In addition, the cell viability of Huh 7 and HEK293 cells was evaluated post drug exposure using the Alamar Blue assay [Riss, Terry L., et al. “Cell viability assays.” Assay Guidance Manual [Intenet]. […] Cells (1×10/well) were exposed to varying concentrations of test compounds, for 24 hours in 96-well plate format along with 10/100 μL Alamar Blue solution (10×=4.8 mM in phosphate buffer) per well.

[1] = In vitro cytotoxicity, HEK293 (Alamar Blue); type: cell-based; conditions: human, HEK293 cells; read-out: CC50 (50% cell toxicity)
Experimental: In addition, the cell viability of Huh 7 and HEK293 cells was evaluated post drug exposure using the Alamar Blue assay [Riss, Terry L., et al. “Cell viability assays.” Assay Guidance Manual [Intenet]. Eli Lilly & Company and the National Centre for Advancing Translational Sciences, 2016]. Cells ([…]) were exposed to varying concentrations of test compounds, for 24 hours in 96-well plate format along with 10/100 μL Alamar Blue solution (10×=4.8 mM in phosphate buffer) per well. […] Results from the cytotoxicity assays were expressed as CC50 at which 50% of the cells died/metabolically slowed down due to drug exposure compared to the non-treated and vehicular control.
The cytotoxicity of Compound I was tested by exposing peripheral blood mononuclear cells (PBMCs) to drug concentrations corresponding to averages of both Pf3D7 and PfDd2 IC50 values. This was intended to establish whether the observed antiparasitic effects of the compounds were due to non-specific inhibitory activity. […] The IC50 required for killing the parasite is <90 nM. Therefore, in order to be toxic for human cells we have to use over 650 fold concentration.

[2] = tested on: human T-type calcium channel; assay: Whole cell patch clamp in HEK 293 cells; type: cell-based; conditions: increasing concentrations up to 1 microMolar
Experimental: These currents were measured with the Patch clamp method in the “whole cell” configuration. In this configuration, the total currents that pass through all the calcium channels present in the plasma membrane are measured. In this case, it is measured in HEK cells, which constitutively express the human T type Calcium channel. In this case, the internal solutions contain the Cs+ instead of K+, thus blocking the K+ channels and the external one contains TEA an external channel blocker of K. This way the only currents that can develop in these cells are that of T type Calcium channels. This calcium channel is a voltage dependent channel, which is characterized by activating at membrane potentials that are more negative than L-type channels and by rapidly inactivating. […] This is the characteristic of the human T type calcium channel.

[3] = In vivo acute toxicity study and pathological examination; design: species or system BALB/C mice
From the text: Again mice were randomly divided in two groups. Each group consisted of 3 mice.
Mice were divided into two groups of three mice. […] Again Mice were randomly divided in two groups. Each group consisted of 3 mice. […] Serum was taken for biochemistry studies.

[4] = tested on: L. donavani infected THP1 cells; assay: Calcium levels in L. donavani infected THP1 cells (Fluo4-AM); type: cell-based, Leishmania donovani; conditions: 10 μM, within few seconds, preliminary
Experimental: A macrophage differentiated cell culture of THP1 cell lines by phorbol 12-myristate 13-acetate (PMA) concentration of 15 ng/ml was established on 15 mm glass bottom petri dishes. The confluent cells were infected with leishmania promastigotes in 1:5 ratio. The infected macrophages were washed after 24 hr.
Incubation was conducted to remove uninfecting promastigotes with same RPMI medium with 6% FCS. The culture was then washed twice in HEPES-buffered saline solution (HBSS) (in mM: 25 HEPES, 121 NaCl, 5 NaHCO3, 4.7 KCl, 1.2 KH2PO4, 1.2 MgSO4, 2.0 CaCl2), 10 glucose, 0.04 probenecid, and 0.25% (w/v) fatty acid-free BSA, pH 7.4). The culture was switched to the same buffer with Fluo4-AM (1×), Hoechst 33258 (1×) and charged for 40 minutes. The cells were then washed in same buffer without dye and mounted on the stage of inverted LSM 510 Zeiss, […], 1.4 NA, oil-immersion objective, zoom 4-6, z-stacks of […] thin optical sections, 4-8× average, 2,000×2,000 pixel window, range indicator used for optimized illumination, and 488, 543, 633 laser lines used for excitation. Compounds Miltefosine, Amphotericin B, calxinin and DMSO were added during time-course experiments. Preliminary results of Amastigotes treated with DMSO (negative control) and treated Compound 1 (10 μM) were generated.

parasitized RBC = assay: Calcium levels in parasitized RBC; type: cell-based; conditions: 10 μM, within a few seconds, preliminary
Experimental: No difference in the activity of the Calcium T Channel was observed under control conditions and with increasing concentrations of the Calxinin molecule, there is no difference in the amplitude of the calcium channel currents, nor in the dependence with the membrane potential of calcium channel activation up to 1 microMolar, that is […] higher than the IC50 to kill the parasite. Human T-type calcium channel currents were measured with the Patch clamp on the “whole cell” configuration in HEK cells constitutively expressing human T type Calcium channel. […] As shown, in FIG. 9 no difference in the amplitude of the calcium channel currents, nor in the dependence with the membrane potential of calcium channel activation even at 11 times the IC50 concentration. Preliminary results of parasitized RBC treated with CQ (I0 μM)+DMSO (negative control) and treated Compound I (10 μM, data not shown) were generated.

[5] = tested on: P. berghei ANKA sporozoites; assay: Liver-stage infection in mice by mosquito bites, treatment and survival; type: in vivo
Experimental: [1] Liver-stage infection in mice, treatment and survival assay: GFP-expressing P. berghei ANKA were grown in Anopheles stephensi mosquitoes in the insectary at National Institute of Immunology (New Delhi, India). Sporozoite count per salivary gland and infectivity was determined before the experimental infection of mice by the mosquito bites. Briefly, anaesthetized mice were exposed to a cage of sporozoite carrying starved mosquitoes (100 mosquito/5 mouse) for 15 minutes with intermittent disturbing of mosquito every 2-3 minute in order to encourage biting and injection of more sporozoite. Biting was done at 22+1° C. and dark condition maintained in an incubator. First dose (10 mg/Kg) was given 24 hours before the infection, second dose was given two hours post sporozoite challenge (biting) drug was given intraperitonially (I.P). Remaining dosages were given 24 h post challenge.
[2] For calculating parasite load, liver of experimental mice were isolated 50 h post infection. Mice were anesthetized, abdominal area sterilized with 70% ethanol and liver dissected out. Liver was homogenized in precold denaturating solution. RNAs were isolated from the homogenized sample followed by Real Time polymerase chain reaction (PCR).
Prompted by the notable in vitro liver stage activity, mice were infected with sporozoites through mosquito bites to test the efficacy of Compound I on liver stage infection in mouse models. The infected mice were treated with fixed dose of 10 mg/kg for three days. Liver stage P. berghei parasites mature into merozoites in about 55 hours. […] To understand the pre-patient period and delay, the starting of blood stage parasite infection was monitored after three days post challenge by observing Giemsa stained smears. […] Single day delay in blood stage infection corresponds to about 10-fold decrease in liver parasite burden. Experimental mice were kept for survival studies after treatment with Compound 1 (10 mg/kg) and death day was noted.
The percentage of parasitemia remained low until day 7 post-sporozoite challenges.

[6] = tested on: sexual erythrocytic stages of PfDd2 cultures; assay: Anti-gametocyte activity, stage I and II gametocytes; type: cell-based, Plasmodium falciparum
Experimental: The effect of Compound I was tested on the development of sexual erythrocytic stages of PfDd2 cultures. Stage I and II gametocytes, were incubated for forty-eight hours with drug concentration considering the IC50 values of compounds at asexual stage assay.

**Q.** What does the source list for `NC(Cc1ccccc1)C(O)CN1CCN(Cc2ccc(C(F)(F)F)cc2)CC1` (stereo not shown) [Compound I]?
**A.** agonist-induced aggregation of human platelets (human platelets): did not alter agonist-induced aggregation of human platelets; toxicity to HEK293, Huh 7.1, HepG2 and PBMCs (primary and human cells): did not show any toxicity; concentration up to which no toxicity was seen (primary and human cells; primary and human cells): > 30 µM; CC50 at 24 h [1]: 60.2 µM; activity of the Calcium T Channel (current amplitude, voltage dependence of activation) [2]: No difference; pathological examination of liver, kidney, stomach ([3]; 300 mg/kg oral for four consecutive days): does not indicate an increase or decrease of Kuepfer cells in the liver, loss of structural integrity in the kidney or lining of stomach; toxicity overall ([3]; 1200 mg/kg (300 mg/kg for four consecutive days)): no indication of toxicity; behavior ([3]; oral): no behavior changes were observed; body weight ([3]; oral): remained constant; motor and feeding activities ([3]; oral): normal; calcium levels of Macrophage+L. donavani [4]: changes in the calcium levels; calcium levels of packed red blood cells (pRBCs) (parasitized RBC): changes in the calcium levels; Mean survival time (MST) ([5]; 10 mg/kg): about 9 days; decrease in liver parasite burden corresponding to the delay ([5]; 10 mg/kg): about 10 fold; delay in the prepatent period ([5]; 10 mg/kg): One day's delay; inhibition of liver stage infection in mice ([5]; 10 mg/kg for three days, I.P): 30%; maturation of stage III to V gametocytes (PfDd2) ([6]; 48 hours at asexual stage IC50, vs DMSO control): 41.0; gametocyte morphology ([6]; 48 hours, vs DMSO control): morphologically distorted gametocytes; decreased proportion of stage III to V gametocytes ([6]; 48 hrs at 88 nM): up to 59%
